# Assay results taken from patent EP2508171B1, “Pharmaceutical magnetic nano-particle composition” (Universitätsklinikum Erlangen, priority 2011, dated 2012).
# Like-named read-outs stand apart in the source and are kept apart here.
# Test: Biodistribution and biodegradation after i.v. application (HPLC of MTO, SQUID/MRX of iron oxide)
# Type: in vivo, New Zealand White Rabbits
# Conditions: for concentration at 24 h: New Zealand White, rabbit, iv, regular systemic dose of pure MTO (10 mg MTO/m2 body surface), n=6, HPLC
# Experimental: For the animal experiments New Zealand White Rabbits were used. The animals, weighing about 4.5 - 5.2 kg, were treated (i.v.) with ferrofluid bound MTO containing a drug amount of 10% compared to the regular systemic dose which requires 10 mg MTO/m2 body surface (n=5). The other study group (n=6) received the regular systemic dose of pure MTO. After 24h hours the animals were sacrificed and the organs harvested. Complete organs of liver and kidneys were processed and MTO was extracted for HPLC-analysis. Tissue homogenates have also been measured by SQUID.
smiles,measurement,setting,value
"O=C1c2c(O)ccc(O)c2C(=O)c2c(NCCNCCO)ccc(NCCNCCO)c21 [pure MTO, mitoxantron]",concentration at 24 h,"kidney, read-out: MTO concentration in kidneys",8500 ng/g
same,concentration at 24 h,"liver, read-out: MTO concentration in liver tissue",190 ng/g
same,MTO enrichment in kidneys relative to liver,"pure i.v. injection of MTO, regular systemic dose, 24h",44 fold
